{"source": "patent US10314838B2", "about": "“Compositions of buprenorphine and μ antagonists” (priority 2011, dated 2019)", "key": {"[1]": {"system": "NAc-sh dopamine and 5-HIAA", "test": "NAc-sh dopamine and 5-HIAA in WKY rats undergoing forced swim test", "assay_type": "in vivo, rat", "conditions": "highest dose of Compound 1, buprenorphine 0.1 mg/kg, WKY rats in FST", "description": "FIG. 6: The effect of Compound-1 on dopamine efflux in WKY rats undergoing forced swim test after treatment with Buprenorphine (0.1 mg/kg).\nFIG. 7: The efflux of Compound-1 on 5-Hydroxyindoleacetic acid (5-HIAA) release in WKY rats undergoing the forced swim test after treatment with Buprenorphine (0.1 mg/kg)."}, "[2]": {"test": "Plasma Cmax in patients (LC/MS/MS)", "conditions": "human, 8 mg", "method": "Samples were analyzed using a 50 μL aliquot volume and a protein-precipitation extraction procedure followed by liquid chromatography/tandem mass spectrometry (LC/MS/MS).\nSamples were analyzed using a 400 μL aliquot volume and a solid-phase extraction procedure followed by liquid chromatography/tandem mass spectrometry (LC/MS/MS)."}, "human μ opioid receptor": {"target": "T1, human μ opioid receptor (Homo sapiens, UniProt P35372)", "T1 construct": "expressed in transfected cells; membranes used", "T1 sequence (P35372 whole entry)": "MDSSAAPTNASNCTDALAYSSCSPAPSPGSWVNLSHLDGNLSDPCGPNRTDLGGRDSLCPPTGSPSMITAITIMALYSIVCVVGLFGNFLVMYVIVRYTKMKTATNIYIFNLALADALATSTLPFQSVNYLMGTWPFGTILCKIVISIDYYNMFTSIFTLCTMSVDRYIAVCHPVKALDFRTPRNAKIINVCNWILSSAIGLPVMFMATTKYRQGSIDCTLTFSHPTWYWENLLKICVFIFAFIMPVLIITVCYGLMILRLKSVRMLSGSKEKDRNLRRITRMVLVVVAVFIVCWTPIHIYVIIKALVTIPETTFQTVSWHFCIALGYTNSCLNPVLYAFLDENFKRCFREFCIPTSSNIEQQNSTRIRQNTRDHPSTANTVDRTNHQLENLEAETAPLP", "test": "biochemical", "description": "Other functional assays could also be used based on cAMP or other downstream end-points following receptor activation; however the GTPγS is the preferred approach. […] Since the AAnAI is based on Cmax it can be calculated for any route of administration for the combination.\nThese values were determined using the GTPγS functional assay.\nThe [^35S]GTPγS assay measures the functional properties of a compound by quantifying the level of G-protein activation following agonist binding in studies using stably transfected cells, and is considered to be a measure of the efficacy of a compound. Membranes from CHO (Chinese Hamster Ovary) cells that stably expressed the cloned human μ opioid receptor were used in the experiments. […] The assay buffer consisted of 50 mM Tris-HCl, pH 7.4, 3 mM MgCl2, 0.2 mM EGTA, 3 μM GDP, and 100 mM NaCl. The final concentration of [35S]GTPγS was 0.080 nM. Nonspecific binding was measured by inclusion of 10 μM GTPγS. Binding was initiated by the addition of the membranes. After an incubation of 60 min at 30° C., the samples were filtered through Schleicher & Schuell No. 32 glass fiber filters. The filters were washed three times with cold 50 mM Tris-HCl, pH 7.5, and were counted in 2 mL of Ecoscint scintillation fluid."}, "[3]": {"test": "Rat plasma Cmax of antagonists given with buprenorphine", "conditions": "male, sc", "method": "Male rats weighing between 300-400 grams, the same weight range used in the microdialysis studies, were used for these PK experiments. […] Sample of blood were collected at 5, 15, 30, 60 and 120 minutes post dosing. […] The collection tubes were inverted 10-15 times and then held on ice prior to centrifugation."}, "[4]": {"system": "dopamine efflux in the Nucleus Accumbens shell (NAc-sh)", "test": "In vivo microdialysis, buprenorphine-induced dopamine efflux", "conditions": "antagonist plus buprenorphine 0.1 mg/kg SC", "method": "Experiments were conducted in rats to assess the ability of opioid antagonists to modulate buprenorphine-induced dopamine efflux in the Nucleus Accumbens shell (NAc-sh) region of the mesolimbic region of the brain. Male rats weighing 300-400 grams were used for all studies. To measure the efflux of dopamine in the NAc-sh an in vivo microdialysis method was utilized in free-moving rats. This method allows the sampling of extracellular cerebrospinal fluid (CSF) from specific brain regions of interest and measurement of neurotransmitter concentrations following the analysis of sampled dialysate with HPLC-EC.\nEach rat underwent surgical implantation of microdialysis guide cannula (CMA 12, CMA Microdialysis) to facilitate the insertion of the microdialysis probe later on. Rats were anesthetized with a mixture of ketamine/xylazine (80/6 mg/kg IP) and placed in a stereotaxic apparatus. […] Guide cannula were capped with dummy probes until microdialysis probe insertion. On the day prior to experimentation (3-4 days post-surgery), animals were weighed to determine appropriate dose for test articles. A microdialysis probe (CMA 12, 2 mm membrane, CMA microdialysis) was then inserted through the guide cannula. […] Each sample was analyzed via HPLC-EC to determine neurotransmitter concentration of dopamine based upon a six-point standard curve."}, "[5]": {"conditions": "50 mg dose of naltrexone; cited from earlier work"}}, "note": "Read-outs that look alike come from different tables or passages of the source."}
{"smiles": "NC(=O)c1ccc2c(c1O)[C@]13CCN(CC4CC4)[C@H](C2)[C@]1(O)CCC(=O)C3", "note": "[Compound-1]", "values": [{"measurement": "Buprenorphine effect on 5-HIAA", "setting": "[1]", "value": "complete attenuation of buprenorphine effects"}, {"measurement": "Buprenorphine effect on NAc-sh dopamine", "setting": "[1]", "value": "complete attenuation of buprenorphine effects"}, {"measurement": "Cmax", "setting": "[2]", "value": 25.8, "unit": "ng/mL"}, {"measurement": "Cmax", "setting": "[2]; other: sublingual", "value": 69.6, "unit": "nM"}, {"measurement": "IC50", "setting": "human μ opioid receptor", "value": 0.9, "unit": "nM"}, {"measurement": "Imax", "setting": "human μ opioid receptor", "value": ">95", "unit": "%"}, {"measurement": "Cmax", "setting": "[3]; 0.3 mg/kg", "value": 11.8, "unit": "ng/mL"}, {"measurement": "Cmax", "setting": "[3]; 1 mg/kg", "value": 75.5, "unit": "ng/mL"}]}
{"smiles": "C=C1CC[C@@]2(O)[C@H]3Cc4ccc(C(N)=O)c(O)c4[C@@]2(CCN3CC2CC2)C1", "note": "[Compound-10]", "values": [{"measurement": "IC50", "setting": "human μ opioid receptor", "value": 0.23, "unit": "nM"}, {"measurement": "Cmax", "setting": "[3]; 0.03 mg/kg", "value": 2.24, "unit": "ng/mL"}, {"measurement": "Cmax", "setting": "[3]; 0.1 mg/kg", "value": 18.1, "unit": "ng/mL"}, {"measurement": "Cmax", "setting": "[3]; 0.3 mg/kg", "value": 29.5, "unit": "ng/mL"}]}
{"smiles": "C=C1CC[C@@]2(O)[C@H]3Cc4ccc(O)c5c4[C@@]2(CCN3CC2CC2)[C@H]1O5", "note": "[Nalmefene, nalmefene]", "values": [{"measurement": "NAc-sh dopamine efflux induced by buprenorphine", "setting": "[4]", "value": "more potent"}, {"measurement": "Cmax", "setting": "[3]; 0.1 mg/kg", "value": 14.1, "unit": "ng/mL"}, {"measurement": "Cmax", "setting": "[3]; 0.3 mg/kg", "value": 25.6, "unit": "ng/mL"}, {"measurement": "Cmax", "setting": "[3]; 1 mg/kg", "value": 162, "unit": "ng/mL"}]}
{"smiles": "O=C1CC[C@@]2(O)[C@H]3Cc4ccc(O)c5c4[C@@]2(CCN3CC2CC2)[C@H]1O5", "note": "[Naltrexone, naltrexone]", "values": [{"measurement": "Cmax", "setting": "[5]", "value": "approximately 10 ng/mL"}, {"measurement": "Cmax", "setting": "[3]; 0.1 mg/kg", "value": 19.3, "unit": "ng/mL"}, {"measurement": "Cmax", "setting": "[3]; 0.3 mg/kg", "value": 76.9, "unit": "ng/mL"}, {"measurement": "Cmax", "setting": "[3]; 1 mg/kg", "value": 169, "unit": "ng/mL"}]}
